{"source": "patent US9790503B2", "about": "“VHZ for diagnosis and treatment of cancer” (AGENCY FOR SCIENCE, TECHNOLOGY AND RESEARCH (A*STAR), priority 2007, dated 2017)", "target": "T1, VHZ-GST (Homo sapiens, UniProt Q9BVJ7)", "T1 construct": "made in house", "T1 sequence (Q9BVJ7 1-150)": "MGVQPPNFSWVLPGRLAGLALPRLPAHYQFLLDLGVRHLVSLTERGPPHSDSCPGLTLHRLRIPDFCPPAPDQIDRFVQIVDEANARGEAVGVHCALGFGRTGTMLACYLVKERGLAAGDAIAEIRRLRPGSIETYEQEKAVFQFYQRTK", "assay": "Tyrosine phosphatase assay (EnzChek kit, fluorogenic substrate)", "format": "biochemical", "conditions": "10 μM sodium orthovanadate added to the reaction; VHZ-GST 0.675 picomoles; fluorescence excitation/emission 358/452 nm", "experimental": "The EnzChek kit (Invitrogen, R22065) is used. As per the manufacturer's protocol, the fluorogenic substrate is reconstituted in the assay wells with buffer; the desired potential PTPases (0.675 picomole for each protein: VHZ-GST, VHZ-GST+Phosphatase inhibitor, VHZ(C95S)-GST, and control GST) are added to the wells and incubated 30 min or 90 min respectively. The fluorescence is then quantified using a Gemini XPS microplate spectrofluorometer (Molecular Devices). Fluorescence is measured at 10 minute intervals at the excitation and emission wavelengths of 358 and 452 nm, respectively. The phosphatase inhibitor sodium orthovanadate (10 μM) is used in the assay as a negative control."}
{"smiles": "[Na+].[Na+].[Na+].[O]=[V]([O-])([O-])[O-]", "note": "[sodium orthovanadate]", "values": [{"measurement": "PTPase activity of VHZ", "result": "completely abolished"}]}
